From US6716588B2, “System for cell-based screening” (Cellomics, Inc., priority 1999, dated 2004)

Legend:
PC-3 cells = test: Cell spreading assay, PC-3 cells; type: cell-based, human; conditions: for ability of cells to spread (percentage of cells with Cyto minus NucArea above threshold): PC-3 on type I collagen, 3 hours
Procedure: (§1) Compounds that interfere with metastasis of prostate carcinoma cells were screened as follows. PC3 human prostate carcinoma cells (ATCC # CRL 1435) were cultured in media with appropriate stimulants and passaged to collagen coated 96 well plates. Similar experiments were also conducted with MDA-MB231, a breast carcinoma cell line (ATCC # HTB-26), A549 human lung carcinoma cell line (ATCC # CCL 185), and primary HMVEC-d human skin microvessel endothelial cells (Clonetics Walkersville, Md.
(§2) Conditions in which cell spreading could be augmented or diminished were tested in various ways, including plating the cells on collagen coated (various concentrations) or collagen free substrates, varying the time of cell spreading prior to analysis, and plating cells in the presence of chemical modulators. After two hours, cells were fixed and stained with ALEXA™ 488 phalloidin (Molecular Probes) and Hoechst 33342 as per the protocol for cellular hypertrophy. The size of cells under these various conditions, as measured by cytoplasmic staining, was distinguished from background levels. The number of cells per field was determined by measuring the number of nuclei stained with the Hoechst DNA dye. The area per cell was found by dividing the cytoplasmic area (phalloidin image) by the cell number (Hoechst image).

A549 cells [1] = test: Cell spreading assay, A549 cells; type: cell-based, human; conditions: for inhibition of cell spreading: 10 μM; for stimulation of spreading by matrix protein / completeness of cell spreading on matrix protein: A549 cells plated on matrix protein
Procedure: as §1, §2
(§3) To illustrate how cell spreading is a unique functional event that can be distinguished from attachment and motility by drug effects, we performed the following experiments. A549 cancer cells were allowed to spread on a collagen I coated substrate for 3 hours, and then were fixed and stained with rhodamine phalloidin. The number of cells that spread beyond a selectable threshold area was measured as a function of increasing concentrations of cytochalasin D. While cells normally spread to a size much larger than the nucleus in this time interval, cytochalasin D maintained cells in a tight rounded morphology not much larger than the nucleus. The movement of A549 cells was measured at 18 hours after plating. At a concentration of 0.5 μM, cytochalasin D prevented spreading of 80% of cells but permitted movement of 70% of cells. Cytochalasin had no effect on adhesion to the substrate as measured by the number of cells that remain attached after a 3 hour incubation.
(§4) The spreading of cells is a function of the ligands and cell receptors that are employed, and plating cells on different immobilized ligands will selectively bind to matched cell surface receptors. A549 cells were plated on various matrix proteins and allowed to spread for 3 and for 5 hours. […] Thus ligand-dependent differences in the kinetics of cell spreading can be measured. In addition, strong differences in the activation of spreading were seen on different matrices. […] In contrast to spreading, cell motility presented a very different biological profile of these matrix proteins. […] In further experiments, cells were allowed to spread in the presence of various kinase inhibitors and the effect on cell spreading was determined.

A549 cells [2] = test: Cell movement (motility) of A549 cells; type: cell-based, human; conditions: for inhibition of cell movement (motility): 10 μM; for stimulation of movement by matrix protein: A549 cells plated on matrix protein
Procedure: as §3, §4

SNB-19 cells = test: High-content screen of drug-induced apoptosis, SNB-19 cells; type: cell-based
Procedure: Cell preparation. The cells chosen for this study were mouse connective tissue fibroblasts (L-929; ATCC CCL-1) and a highly invasive glioblastoma cell line (SNB-19; ATCC CRL-2219) (Welch et al., In Vitro Cell. Dev. Biol. 31:610, 1995). The day before treatment with an apoptosis inducing drug, 3500 cells were placed into each well of a 96-well plate and incubated overnight at 37° C. in a humidified 5% CO2 atmosphere. The following day, the culture medium was removed from each well and replaced with fresh medium containing various concentrations of paclitaxel (0-50 μM) from a 20 mM stock made in DMSO. The maximal concentration of DMSO used in these experiments was 0.25%. The cells were then incubated for 26 h as above. At the end of the paclitaxel treatment period, each well received fresh medium containing 750 nM MitoTracker Red (Molecular Probes; Eugene, Oreg.) and 3 μg/ml Hoechst 33342 DNA-binding dye (Molecular Probes) and was incubated as above for 20 min. […] The fluorescence signals from plates stored this way were stable for at least two weeks after preparation. As in the nuclear translocation assay, fluorescence reagents can be designed to convert this assay into a live cell high-content screen.
Image acquisition and analysis on the ArrayScan System. The fluorescence intensity of intracellular MitoTracker Red, Hoechst 33342, and Bodipy FL phallacidin was measured with the cell screening system as described supra. […]
Calculations and output. A total of 50-250 cells were measured per image field. For each field of cells, the following calculations were performed: (1) The average nuclear area (μm^2) was calculated by dividing the total nuclear area in a field by the number of nuclei detected. (2) The average nuclear perimeter (μm) was calculated by dividing the sum of the perimeters of all nuclei in a field by the number of nuclei detected in that field. […] (3) The average nuclear brightness was calculated by dividing the integrated intensity of the entire field of nuclei by the number of nuclei in that field. […]

L-929 cells = test: High-content screen of drug-induced apoptosis, L-929 cells; type: cell-based, mouse
Procedure: Cell preparation. The cells chosen for this study were mouse connective tissue fibroblasts (L-929; ATCC CCL-1) and a highly invasive glioblastoma cell line (SNB-19; ATCC CRL-2219) (Welch et al., In Vitro Cell. Dev. Biol. 31:610, 1995). The day before treatment with an apoptosis inducing drug, 3500 cells were placed into each well of a 96-well plate and incubated overnight at 37° C. in a humidified 5% CO2 atmosphere. The following day, the culture medium was removed from each well and replaced with fresh medium containing various concentrations of paclitaxel (0-50 μM) from a 20 mM stock made in DMSO. The maximal concentration of DMSO used in these experiments was 0.25%. The cells were then incubated for 26 h as above. At the end of the paclitaxel treatment period, each well received fresh medium containing 750 nM MitoTracker Red (Molecular Probes; Eugene, Oreg.) and 3 μg/ml Hoechst 33342 DNA-binding dye (Molecular Probes) and was incubated as above for 20 min. Each well on the plate was then washed with HBSS and fixed with 3.7% formaldehyde in HBSS for 15 min at room temperature. The formaldehyde was washed out with HBSS and the cells were permeabilized for 90 s with 0.5% (v/v) Triton X-100, washed with HBSS, incubated with 2 U ml^−1 Bodipy FL phallacidin (Molecular Probes) for 30 min, and washed with HBSS. The wells on the plate were then filled with 200 μl HBSS, sealed, and the plate stored at 4° C. if necessary. The fluorescence signals from plates stored this way were stable for at least two weeks after preparation. As in the nuclear translocation assay, fluorescence reagents can be designed to convert this assay into a live cell high-content screen.
Image acquisition and analysis on the ArrayScan System. The fluorescence intensity of intracellular MitoTracker Red, Hoechst 33342, and Bodipy FL phallacidin was measured with the cell screening system as described supra. Morphometric data from each pair of images obtained from each well was also obtained to detect each object in the image field (e.g., cells and nuclei), and to calculate its size, shape, and integrated intensity.
Calculations and output. A total of 50-250 cells were measured per image field. For each field of cells, the following calculations were performed: (1) The average nuclear area (μm^2) was calculated by dividing the total nuclear area in a field by the number of nuclei detected. (2) The average nuclear perimeter (μm) was calculated by dividing the sum of the perimeters of all nuclei in a field by the number of nuclei detected in that field. Highly convoluted apoptotic nuclei had the largest nuclear perimeter values. (3) The average nuclear brightness was calculated by dividing the integrated intensity of the entire field of nuclei by the number of nuclei in that field. An increase in nuclear brightness was correlated with increased DNA content. (4) The average cellular brightness was calculated by dividing the integrated intensity of an entire field of cells stained with MitoTracker dye by the number of nuclei in that field. Because the amount of MitoTracker dye that accumulates within the mitochondria is proportional to the mitochondrial potential, an increase in the average cell brightness is consistent with an increase in mitochondrial potential. (5) The average cellular brightness was also calculated by dividing the integrated intensity of an entire field of cells stained with Bodipy FL phallacidin dye by the number of nuclei in that field. […]

[3] = tested on: NF-KB transcription factor; test: Cytoplasm to nucleus translocation screen of NF-KB (NucCyt Difference); type: cell-based, human; conditions: titrated in the presence of IL-1α
Procedure: The distribution of the transcription factor is determined by labeling the nuclei with a DNA specific fluorophore like […] and the transcription factor with a specific fluorescent antibody. After autofocusing on the Hoechst labeled nuclei, an image of the nuclei is acquired in the cell-based screening system and used to create a mask by one of several optional thresholding methods, as described supra. The morphological descriptors of the regions defined by the mask are compared with the user defined parameters and valid nuclear masks are identified and used with the following method to extract transcription factor distributions. Each valid nuclear mask is eroded to define a slightly smaller nuclear region. The original nuclear mask is then dilated in two steps to define a ring shaped region around the nucleus, which represents a cytoplasmic region. The average antibody fluorescence in each of these two regions is determined, and the difference between these averages is defined as the NucCyt Difference. […] Using these two sampling regions, data on nuclear translocation can be automatically analyzed by the cell-based screening system on a cell by cell basis. […]

## C[S+](C)[O-] [DMSO]
PC-3 cells; DMSO 2.5%
  ability of cells to spread (percentage of cells with Cyto minus NucArea above threshold): significantly reduced
PC-3 cells; DMSO 5%
  ability of cells to spread (percentage of cells with Cyto minus NucArea above threshold): significantly reduced
PC-3 cells; DMSO at or below 1%
  ability of cells to spread (percentage of cells with Cyto minus NucArea above threshold): no effect

## O=C(O)CN(CCN(CC(=O)O)CC(=O)O)CC(=O)O [EDTA]
PC-3 cells; PC-3 cells, 50 mM
  cell adherence: inhibited cell adherence
  cell spreading: inhibited cell spreading

## CN([C@@H](Cc1ccc(OS(=O)(=O)c2cccc3cnccc23)cc1)C(=O)N1CCN(c2ccccc2)CC1)S(=O)(=O)c1cccc2cnccc12 [KN-62]
A549 cells [1]
  inhibition of cell spreading: ineffective
A549 cells [2]
  inhibition of cell movement (motility): ineffective

## C=C1[C@@H](C)[C@H]2[C@H](Cc3ccccc3)NC(=O)[C@]23[C@H](OC(C)=O)/C=C/[C@@](C)(O)C(=O)[C@@H](C)C/C=C/[C@H]3[C@@H]1O [cytochalasin D]
PC-3 cells; cell line not given
  binding of cells to the substrate: did not affect binding of cells to the substrate
  spreading on various substrates: prevented their spreading
A549 cells [1]; 0.5 μM, collagen I coated substrate, 3 hours
  cells prevented from spreading: 80%
A549 cells [1]; 3 hour incubation
  adhesion to the substrate (number of cells that remain attached): no effect
A549 cells [2]; 0.5 μM, movement measured at 18 hours after plating
  cells permitted to move: 70%

## O=c1c(-c2ccc(O)cc2)coc2cc(O)cc(O)c12 [genistein]
A549 cells [1]
  inhibition of cell spreading: ineffective
A549 cells [2]
  inhibition of cell movement (motility): ineffective

## CC(=O)O[C@H]1C(=O)[C@@]2(C)[C@H]([C@H](OC(=O)c3ccccc3)[C@]3(O)C[C@H](OC(=O)[C@H](O)[C@@H](NC(=O)c4ccccc4)c4ccccc4)C(C)=C1C3(C)C)[C@]1(OC(C)=O)CO[C@@H]1C[C@@H]2O [paclitaxel]
SNB-19 cells; 10 nM paclitaxel, 26 h
  mitochondrial potential: minimal
SNB-19 cells; 26 h
  concentration at which area, brightness, fragmentation of the nucleus and actin polymerization reached a maximum value: 10 nM
SNB-19 cells; >10 nM paclitaxel
  all the parameters measured at increasing concentrations: approached control levels
L-929 cells; L-929 cells, 26 h
  concentration of maximal response in many parameters: 5 µM
L-929 cells; L-929 cells, any of the concentrations tested (0-50 μM)
  mitochondrial potential: did not show a sharp decrease
L-929 cells; L-929 cells, each parameter measured
  sensitivity to low concentrations compared with SNB-19 cells: less sensitive
L-929 cells; L-929 cells, increasing amounts of paclitaxel
  nuclear morphology: caused nuclei to enlarge and fragment
L-929 cells; L-929 vs SNB-19
  dose of maximal response, L-929 relative to SNB-19 cells: 500 fold

## Calphostin C
A549 cells [1]
  inhibition of cell spreading: equally effective at inhibiting cell spreading and movement
A549 cells [2]
  inhibition of cell movement (motility): equally effective at inhibiting cell spreading and movement

## IL-1RA: an antagonist to the receptor for IL-1
[3]
  inhibition of translocation induced by IL-1α: progressively inhibiting the translocation

## collagen I: matrix protein used as substrate coating
PC-3 cells; PC-3 cells on a defined collagen I matrix
  time at which cell spreading was achieved: 2 to 3 h
A549 cells [1]
  stimulation of spreading by matrix protein: maximally stimulated both movement and spreading
A549 cells [1]; 3 hours
  completeness of cell spreading on matrix protein: complete by 3 hours
A549 cells [2]
  stimulation of movement by matrix protein: maximally stimulated both movement and spreading

## fibronectin
A549 cells [1]
  stimulation of spreading by matrix protein: maximally stimulated spreading
A549 cells [1]; 3 hours
  completeness of cell spreading on matrix protein: incomplete
A549 cells [2]
  stimulation of movement by matrix protein: minimally stimulated movement

## laminin
A549 cells [1]
  stimulation of spreading by matrix protein: minimally stimulating spreading
A549 cells [1]; 3 hours
  completeness of cell spreading on matrix protein: complete by 3 hours
A549 cells [2]
  stimulation of movement by matrix protein: maximally stimulated movement
